Data on one compound can be found in PMC9946977, “Identification of linderalactone as a natural inhibitor of SHP2 to ameliorate CCl4-induced liver fibrosis” (Frontiers in Pharmacology, 2023).

SMILES strings stand for the structures.

For experiment [1], the target named is T1, SHP2-PTP K366A/Q510A double mutant (Homo sapiens, UniProt Q06124, K366A/Q510A).
T1 construct: Human SHP2 PTP domain (A237–I529) expression constructs; His-tag; made in house; host or cells: E. coli BL21 (DE3)
T1 sequence (Q06124 237-529 K366A/Q510A): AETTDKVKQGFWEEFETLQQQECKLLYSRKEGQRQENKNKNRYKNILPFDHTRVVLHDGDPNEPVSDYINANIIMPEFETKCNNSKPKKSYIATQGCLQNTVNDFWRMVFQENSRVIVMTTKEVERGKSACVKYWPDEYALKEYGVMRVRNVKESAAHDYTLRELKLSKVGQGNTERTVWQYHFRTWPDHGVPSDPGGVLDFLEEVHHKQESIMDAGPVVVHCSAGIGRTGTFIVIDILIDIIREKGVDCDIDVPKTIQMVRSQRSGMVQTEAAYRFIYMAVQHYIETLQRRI
Put plainly: BLI assay, SHP2-PTP K366A/Q510A double mutant. The class given is binding. How it is done: Human SHP2 PTP domain (A237–I529) expression constructs were engineered by cloning PTPN11 (NP_002825.3) into the pET30 plasmid with a His-tag to support further protein purification. The K366A/Q510A double mutation was introduced into the wild-type template using a site-directed mutagenesis kit (E0554S; New England Biolabs). The expression constructs were sequenced and transformed into BL21 (DE3)-competent cells. E. coli cells were grown at 37°C in an LB culture medium in the presence of […] kanamycin until the OD600 reached 1.0. The medium was then cooled to 18°C and 1 mM isopropyl ß-D-1-thiogalactopyranoside (IPTG) was added to induce protein expression overnight.
Cell pellets were collected and suspended in a buffer of 50 mM Tris-HCl (Ph = 8.5), 150 mM NaCl supplemented with 10% glycerol, and lysed by homogeniser (JN-BIO, China). […]
The BLI assay was performed using a FortéBio Octet 96 system. […] After equilibrium, the kinetics of the LIN and SHP2-PTP association were analysed by soaking the SSA sensors in a compound solution with various LIN concentrations for 300 s (6.25, 12.5, 25, 50, 100, and 200 μM), followed by 300 s of dissociation in the same HEPES buffer. The equilibrium constant (KD) values were assessed using the FortéBio data analysis software by fitting the kinetic data using a 1:1 binding model.

The next experiment relates to SHP2-depleted LX-2 cells. Put plainly: SHP2 knockdown (siRNA) LX-2 cells treated with LIN. The class given is cell-based, human. The settings on record: LX-2 cells transfected with SHP2 siRNA. How it is done:
The LX-2 cell line was purchased from the Cell Bank Type Culture Collection of the Chinese Academy of Sciences (Shanghai, China). Cells were cultured in DMEM supplemented with 10% [v/v] foetal bovine serum, 2 mM glutamine, 100 U/ml penicillin, and […] streptomycin. SHP-2 and control siRNAs were obtained from Suzhou GenePharma Co., Ltd. (sense 5'-3': GAGAGAGGAAAGAGUAAAUTT; antisense 5'-3': AUUUACUCUUUCCUCUCUCTT). Transfection was performed according to the manufacturer’s instructions. Subsequent real-time PCR and western blotting were performed to analyse transfection efficiency.
Total RNA was extracted from liver tissues and LX-2 cells using the TRIzol reagent. cDNA was synthesised using a PrimeScript RT Master Mix kit. Real-time PCR was performed using SYBR Green premix according to the manufacturer’s instructions. Relative expression of target genes was normalised to actin, analysed by the delta-delta-CT method and given as a ratio compared with the vehicle control. Primer sequences used in this study are listed in Supplementary Material.

Turning to `C/C1=C\CCC2=C[C@@H](OC2=O)c2c(C)coc2C1` [LIN, linderalactone], the BLI response value entry in experiment [1] (200 μM LIN) is listed as “lower than 0.2”. Also, in experiment [1] (BLI), the “effect of K366A/Q510A mutation on binding affinity between LIN and SHP2-PTP” value is recorded as “significantly eliminated”. Besides, the “sensitivity of fibrogenic gene expression to LIN treatment” value in the experiment with SHP2-depleted LX-2 cells is “much less sensitive”.
